Results: PubChem BioAssay AID2060511 (Molecular Pharmacology Branch, DTP, NCI, 2025)

Test system: 422866-222-R5-J1-PDC spheroids with HUVEC/MSC, viability
Assay: Anticancer human tumor 422866-222-R5-J1-PDC patient-derived pancreatic adenocarcinoma cell line growth inhibition [GQUAD]
Conditions: for IC50: curve of first compound; for viability, T/C: stronger effect = lower value
Procedure, shortened: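 Viability of tumor cells grown as complex spheroids with endothelial and stromal cells, exposed to drug combinations. Top concentration at or near clinical Cmax (else 10 microM), diluted in half-log increments.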

[1] = second compound 0.0316 µM, first compound 0.0316 µM
[2] = second compound 0.0316 µM, first compound 0.1 µM
[3] = second compound 0.0316 µM, first compound 0.316 µM
[4] = second compound 0.0316 µM, first compound 1 µM
[5] = second compound 0.0316 µM, first compound 3.16 µM
[6] = second compound 0.0316 µM, first compound 10 µM
[7] = second compound 0.1 µM, first compound 0.0316 µM
[8] = second compound 0.1 µM, first compound 0.1 µM
[9] = second compound 0.1 µM, first compound 0.316 µM
[10] = second compound 0.1 µM, first compound 1 µM
[11] = second compound 0.1 µM, first compound 3.16 µM
[12] = second compound 0.1 µM, first compound 10 µM
[13] = second compound 0.316 µM, first compound 0.0316 µM
[14] = second compound 0.316 µM, first compound 0.1 µM
[15] = second compound 0.316 µM, first compound 0.316 µM
[16] = second compound 0.316 µM, first compound 1 µM
[17] = second compound 0.316 µM, first compound 3.16 µM
[18] = second compound 0.316 µM, first compound 10 µM
[19] = second compound 1 µM, first compound 0.0316 µM
[20] = second compound 1 µM, first compound 0.1 µM
[21] = second compound 1 µM, first compound 0.316 µM
[22] = second compound 1 µM, first compound 1 µM
[23] = second compound 1 µM, first compound 3.16 µM
[24] = second compound 1 µM, first compound 10 µM
[25] = second compound 3.16 µM, first compound 0.0316 µM
[26] = second compound 3.16 µM, first compound 0.1 µM
[27] = second compound 3.16 µM, first compound 0.316 µM
[28] = second compound 3.16 µM, first compound 1 µM
[29] = second compound 3.16 µM, first compound 3.16 µM
[30] = second compound 3.16 µM, first compound 10 µM
[31] = second compound 10 µM, first compound 0.0316 µM
[32] = second compound 10 µM, first compound 0.1 µM
[33] = second compound 10 µM, first compound 0.316 µM
[34] = second compound 10 µM, first compound 1 µM
[35] = second compound 10 µM, first compound 3.16 µM
[36] = second compound 10 µM, first compound 10 µM
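Further: spheroids exposed to compounds for seven days before reading.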
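Wherever viability, T/C is given: percent viability relative to DMSO vehicle control taken as 100%.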

`CC(C)(O)C1CCC(Nc2ccc3ncc(-c4cccc(C(F)(F)F)c4)n3n2)CC1` (stereo unspecified) + CN(C)c1ccc(Nc2c3ccc(NC(=O)CCN4CCCC4)cc3nc3cc(NC(=O)CCN4CCCC4)ccc23)cc1 gave an IC50 (second compound 0.0316 µM) of 2090 nM, an IC50 (second compound 0.1 µM) of 2670 nM and an IC50 (second compound 0.316 µM) of 1710 nM. The IC50 (second compound 1 µM) was 1770 nM, the IC50 (second compound 3.16 µM) was 1570 nM and the IC50 (second compound 10 µM) was > 10000 nM. The viability, T/C [1] was 88%, the viability, T/C [2] was 80.5% and the viability, T/C [3] was 92.9%. For the same compound, the viability, T/C [4] was 71.8%, the viability, T/C [5] was 38.4% and the viability, T/C [6] was 33.1%. The viability, T/C [7] was 90.2%, the viability, T/C [8] was 87.4% and the viability, T/C [9] was 81.1%. The viability, T/C [10] was 68.5%, the viability, T/C [11] was 45.7% and the viability, T/C [12] was 39%. It also gave a viability, T/C [13] of 72.7%, a viability, T/C [14] of 82.4% and a viability, T/C [15] of 66.1%. The viability, T/C [16] was 58.5%, the viability, T/C [17] was 41.3% and the viability, T/C [18] was 36.9%. It also gave a viability, T/C [19] of 85.6%, a viability, T/C [20] of 80.2% and a viability, T/C [21] of 77.2%. The viability, T/C [22] was 57.6%, the viability, T/C [23] was 42.1% and the viability, T/C [24] was 35.4%. For the same compound, the viability, T/C [25] was 82.2%, the viability, T/C [26] was 77.2% and the viability, T/C [27] was 64.3%. For the same compound, the viability, T/C [28] was 63.5%, the viability, T/C [29] was 33% and the viability, T/C [30] was 40.6%. For the same compound, the viability, T/C [31] was 77.4%, the viability, T/C [32] was 69.6% and the viability, T/C [33] was 79.1%. For the same compound, the viability, T/C [34] was 75.4%, the viability, T/C [35] was 63.2% and the viability, T/C [36] was 55.5%.
`Cn1ncnc1[C@H]1c2n[nH]c(=O)c3cc(F)cc(c23)N[C@@H]1c1ccc(F)cc1` + CN(C)c1ccc(Nc2c3ccc(NC(=O)CCN4CCCC4)cc3nc3cc(NC(=O)CCN4CCCC4)ccc23)cc1 was tested, and the IC50 (second compound 0.0316 µM) was > 316 nM, the IC50 (second compound 0.1 µM) was > 316 nM and the IC50 (second compound 0.316 µM) was > 316 nM. The IC50 (second compound 1 µM) was > 316 nM, the IC50 (second compound 3.16 µM) was > 316 nM and the IC50 (second compound 10 µM) was > 316 nM. For the same compound, the viability, T/C (second compound 0.0316 µM, first compound 0.000999 µM) was 112%, the viability, T/C (second compound 0.0316 µM, first compound 0.00316 µM) was 93.7% and the viability, T/C (second compound 0.0316 µM, first compound 0.00999 µM) was 108%. It also gave a viability, T/C [1] of 97.2%, a viability, T/C (second compound 0.0316 µM, first compound 0.0999 µM) of 80.6% and a viability, T/C [3] of 75.1%. It also gave a viability, T/C (second compound 0.1 µM, first compound 0.000999 µM) of 113%, a viability, T/C (second compound 0.1 µM, first compound 0.00316 µM) of 95.9% and a viability, T/C (second compound 0.1 µM, first compound 0.00999 µM) of 88%. It also gave a viability, T/C [7] of 93.5%, a viability, T/C (second compound 0.1 µM, first compound 0.0999 µM) of 83% and a viability, T/C [9] of 75.7%. For the same compound, the viability, T/C (second compound 0.316 µM, first compound 0.000999 µM) was 94.1%, the viability, T/C (second compound 0.316 µM, first compound 0.00316 µM) was 90% and the viability, T/C (second compound 0.316 µM, first compound 0.00999 µM) was 81.5%. The viability, T/C [13] was 85%, the viability, T/C (second compound 0.316 µM, first compound 0.0999 µM) was 89.1% and the viability, T/C [15] was 67.3%. The viability, T/C (second compound 1 µM, first compound 0.000999 µM) was 78.9%, the viability, T/C (second compound 1 µM, first compound 0.00316 µM) was 81.3% and the viability, T/C (second compound 1 µM, first compound 0.00999 µM) was 75.9%. It also gave a viability, T/C [19] of 91.5%, a viability, T/C (second compound 1 µM, first compound 0.0999 µM) of 73.7% and a viability, T/C [21] of 72%. It also gave a viability, T/C (second compound 3.16 µM, first compound 0.000999 µM) of 72.3%, a viability, T/C (second compound 3.16 µM, first compound 0.00316 µM) of 69.7% and a viability, T/C (second compound 3.16 µM, first compound 0.00999 µM) of 89.5%. It also gave a viability, T/C [25] of 83%, a viability, T/C (second compound 3.16 µM, first compound 0.0999 µM) of 80.1% and a viability, T/C [27] of 80.3%. It also gave a viability, T/C (second compound 10 µM, first compound 0.000999 µM) of 97.7%, a viability, T/C (second compound 10 µM, first compound 0.00316 µM) of 85.1% and a viability, T/C (second compound 10 µM, first compound 0.00999 µM) of 97.4%. The viability, T/C [31] was 90.4%, the viability, T/C (second compound 10 µM, first compound 0.0999 µM) was 71.8% and the viability, T/C [33] was 82.1%.
In the case of `COc1cc(C2c3cc4c(cc3C(OC3OC5COC(C)OC5C(O)C3O)C3COC(=O)C23)OCO4)cc(OC)c1O` (stereo unspecified) + Cc1cnc(CNC(=O)c2c(=O)c3ccc(N4CCCN(C)CC4)nc3n3c2sc2ccccc23)cn1, the IC50 (second compound 0.0316 µM) is reported as 3770 nM, the IC50 (second compound 0.1 µM) is reported as > 10000 nM and the IC50 (second compound 0.316 µM) is reported as > 10000 nM. For the same compound, the IC50 (second compound 1 µM) was > 10000 nM, the IC50 (second compound 3.16 µM) was > 10000 nM and the IC50 (second compound 10 µM) was > 10000 nM. It also gave a viability, T/C [1] of 98.4%, a viability, T/C [2] of 78.3% and a viability, T/C [3] of 83.7%. It also gave a viability, T/C [4] of 59.4%, a viability, T/C [5] of 53.5% and a viability, T/C [6] of 39.1%. The viability, T/C [7] was 92.8%, the viability, T/C [8] was 79.2% and the viability, T/C [9] was 77.6%. It also gave a viability, T/C [10] of 66.8%, a viability, T/C [11] of 59.2% and a viability, T/C [12] of 49.7%. For the same compound, the viability, T/C [13] was 81.6%, the viability, T/C [14] was 94.8% and the viability, T/C [15] was 84%. The viability, T/C [16] was 80.9%, the viability, T/C [17] was 71.8% and the viability, T/C [18] was 58.9%. The viability, T/C [19] was 81.9%, the viability, T/C [20] was 92% and the viability, T/C [21] was 91.4%. For the same compound, the viability, T/C [22] was 91.4%, the viability, T/C [23] was 81.1% and the viability, T/C [24] was 56%. For the same compound, the viability, T/C [25] was 84.6%, the viability, T/C [26] was 87.3% and the viability, T/C [27] was 82.4%. It also gave a viability, T/C [28] of 85.5%, a viability, T/C [29] of 81.6% and a viability, T/C [30] of 60%. It also gave a viability, T/C [31] of 86.2%, a viability, T/C [32] of 80.4% and a viability, T/C [33] of 85.5%. It also gave a viability, T/C [34] of 93.2%, a viability, T/C [35] of 85.1% and a viability, T/C [36] of 52.1%.
